Active and inactive are the calls of the source. The rule behind the calls is not given here.
How the values were obtained:
[1] = system: PANC-1; assay: Cell cycle arrest in human PANC1 cells assessed as accumulation at G1 phase at 10 uM after 24 hrs by RNAase/propidium iodide staining-based flow cytometric analysis (reference value: 67.93 to 75.87%); type: functional
[2] = system: PANC-1; assay: Antiproliferative activity against human PANC1 cells after 24 hrs by CCK8 assay; type: functional, cell-based; conditions: PANC-1, 24 h
[3] = system: HCC1806; assay: Antiproliferative activity against human HCC1806 cells after 24 hrs by CCK8 assay; type: functional, cell-based; conditions: HCC1806, 24 h
[4] = system: HepG2; assay: Antiproliferative activity against human HepG2 cells after 24 hrs by CCK8 assay; type: functional, cell-based; conditions: HepG2, 24 h
[5] = system: BEAS-2B; assay: Antiproliferative activity against human BEAS2B cells after 24 hrs by CCK8 assay; type: functional, cell-based
[6] = system: HT-29; assay: Antiproliferative activity against human HT-29 cells after 24 hrs by CCK8 assay; type: functional, cell-based; conditions: HT-29, 24 h
[7] = system: PANC-1; assay: Induction of apoptosis in human PANC1 cells assessed as nuclear chromatin condensation at 5 uM after 24 hrs by Hoechst 33258 staining based fluorescence microscopic analysis; type: functional, cell-based
[8] = system: PANC-1; assay: Induction of apoptosis in human PANC1 cells assessed as nuclear shrinkage at 5 uM after 24 hrs by Hoechst 33258 staining based fluorescence microscopic analysis; type: functional, cell-based
[9] = system: PANC-1; assay: Induction of apoptosis in human PANC1 cells assessed as nuclear fragmentation at 5 uM after 24 hrs by Hoechst 33258 staining based fluorescence microscopic analysis; type: functional, cell-based
[10] = system: PANC-1; assay: Induction of apoptosis in human PANC1 cells assessed as nuclear chromatin condensation at 25 uM after 24 hrs by Hoechst 33258 staining based fluorescence microscopic analysis; type: functional, cell-based
[11] = system: PANC-1; assay: Induction of apoptosis in human PANC1 cells assessed as nuclear shrinkage at 25 uM after 24 hrs by Hoechst 33258 staining based fluorescence microscopic analysis; type: functional, cell-based
[12] = system: PANC-1; assay: Induction of apoptosis in human PANC1 cells assessed as nuclear fragmentation at 25 uM after 24 hrs by Hoechst 33258 staining based fluorescence microscopic analysis; type: functional, cell-based
[13] = system: PANC-1; assay: Cell cycle arrest in human PANC1 cells assessed as accumulation at G1 phase at 5 uM after 24 hrs by RNAase/propidium iodide staining-based flow cytometric analysis (reference value: 67.93 to 75.87%); type: functional
[14] = system: PANC-1; assay: Cell cycle arrest in human PANC1 cells assessed as accumulation at G2/M phase at 5 uM after 24 hrs by RNAase/propidium iodide staining-based flow cytometric analysis (reference value: 6.83 to 11.82%); type: functional
[15] = system: PANC-1; assay: Cell cycle arrest in human PANC1 cells assessed as accumulation at S phase at 5 uM after 24 hrs by RNAase/propidium iodide staining-based flow cytometric analysis (reference value: 11.66 to 19.02%); type: functional
[16] = system: PANC-1; assay: Cell cycle arrest in human PANC1 cells assessed as accumulation at G2/M phase at 10 uM after 24 hrs by RNAase/propidium iodide staining-based flow cytometric analysis (reference value: 6.83 to 11.82%); type: functional
[17] = system: PANC-1; assay: Cell cycle arrest in human PANC1 cells assessed as accumulation at S phase at 10 uM after 24 hrs by RNAase/propidium iodide staining-based flow cytometric analysis (reference value: 11.66 to 19.02%); type: functional
[18] = system: PANC-1; assay: Cell cycle arrest in human PANC1 cells assessed as accumulation at G1 phase at 15 uM after 24 hrs by RNAase/propidium iodide staining-based flow cytometric analysis (reference value: 67.93 to 75.87%); type: functional
[19] = system: PANC-1; assay: Cell cycle arrest in human PANC1 cells assessed as accumulation at G2/M phase at 15 uM after 24 hrs by RNAase/propidium iodide staining-based flow cytometric analysis (reference value: 6.83 to 11.82%); type: functional
[20] = system: PANC-1; assay: Cell cycle arrest in human PANC1 cells assessed as accumulation at S phase at 15 uM after 24 hrs by RNAase/propidium iodide staining-based flow cytometric analysis (reference value: 11.66 to 19.02%); type: functional
[21] = system: PANC-1; assay: Cell cycle arrest in human PANC1 cells assessed as accumulation at G1 phase at 25 uM after 24 hrs by RNAase/propidium iodide staining-based flow cytometric analysis (reference value: 67.93 to 75.87%); type: functional
[22] = system: PANC-1; assay: Cell cycle arrest in human PANC1 cells assessed as accumulation at G2/M phase at 25 uM after 24 hrs by RNAase/propidium iodide staining-based flow cytometric analysis (reference value: 6.83 to 11.82%); type: functional
[23] = system: PANC-1; assay: Cell cycle arrest in human PANC1 cells assessed as accumulation at S phase at 25 uM after 24 hrs by RNAase/propidium iodide staining-based flow cytometric analysis (reference value: 11.66 to 19.02%); type: functional
[24] = system: PANC-1; assay: Induction of apoptosis in human PANC1 cells assessed as necrotic cells at 5 uM after 24 hrs by FITC-Annexin V/propidium iodide staining-based flow cytometric analysis (reference value: 0.7 to 1.4%); type: functional
[25] = system: PANC-1; assay: Induction of apoptosis in human PANC1 cells assessed as late apoptotic cells at 5 uM after 24 hrs by FITC-Annexin V/propidium iodide staining-based flow cytometric analysis (reference value: 0.0 to 0.7%); type: functional
[26] = system: PANC-1; assay: Induction of apoptosis in human PANC1 cells assessed as early apoptotic cells at 5 uM after 24 hrs by FITC-Annexin V/propidium iodide staining-based flow cytometric analysis (reference value: 0.5 to 3.2%); type: functional
[27] = system: PANC-1; assay: Induction of apoptosis in human PANC1 cells assessed as viable cells at 5 uM after 24 hrs by FITC-Annexin V/propidium iodide staining-based flow cytometric analysis (reference value: 94.7 to 98.7%); type: functional; conditions: PANC-1, 24 h, read-out: Activity
[28] = system: PANC-1; assay: Induction of apoptosis in human PANC1 cells assessed as necrotic cells at 10 uM after 24 hrs by FITC-Annexin V/propidium iodide staining-based flow cytometric analysis (reference value: 0.7 to 1.4%); type: functional
[29] = system: PANC-1; assay: Induction of apoptosis in human PANC1 cells assessed as late apoptotic cells at 10 uM after 24 hrs by FITC-Annexin V/propidium iodide staining-based flow cytometric analysis (reference value: 0.0 to 0.7%); type: functional
[30] = system: PANC-1; assay: Induction of apoptosis in human PANC1 cells assessed as early apoptotic cells at 10 uM after 24 hrs by FITC-Annexin V/propidium iodide staining-based flow cytometric analysis (reference value: 0.5 to 3.2%); type: functional
[31] = system: PANC-1; assay: Induction of apoptosis in human PANC1 cells assessed as viable cells at 10 uM after 24 hrs by FITC-Annexin V/propidium iodide staining-based flow cytometric analysis (reference value: 94.7 to 98.7%); type: functional; conditions: PANC-1, 24 h, read-out: Activity
[32] = system: PANC-1; assay: Induction of apoptosis in human PANC1 cells assessed as necrotic cells at 15 uM after 24 hrs by FITC-Annexin V/propidium iodide staining-based flow cytometric analysis (reference value: 0.7 to 1.4%); type: functional
[33] = system: PANC-1; assay: Induction of apoptosis in human PANC1 cells assessed as late apoptotic cells at 15 uM after 24 hrs by FITC-Annexin V/propidium iodide staining-based flow cytometric analysis (reference value: 0.0 to 0.7%); type: functional
[34] = system: PANC-1; assay: Induction of apoptosis in human PANC1 cells assessed as early apoptotic cells at 15 uM after 24 hrs by FITC-Annexin V/propidium iodide staining-based flow cytometric analysis (reference value: 0.5 to 3.2%); type: functional
[35] = system: PANC-1; assay: Induction of apoptosis in human PANC1 cells assessed as viable cells at 15 uM after 24 hrs by FITC-Annexin V/propidium iodide staining-based flow cytometric analysis (reference value: 94.7 to 98.7%); type: functional; conditions: PANC-1, 24 h, read-out: Activity
[36] = system: PANC-1; assay: Induction of apoptosis in human PANC1 cells assessed as necrotic cells at 25 uM after 24 hrs by FITC-Annexin V/propidium iodide staining-based flow cytometric analysis (reference value: 0.7 to 1.4%); type: functional
[37] = system: PANC-1; assay: Induction of apoptosis in human PANC1 cells assessed as late apoptotic cells at 25 uM after 24 hrs by FITC-Annexin V/propidium iodide staining-based flow cytometric analysis (reference value: 0.0 to 0.7%); type: functional
[38] = system: PANC-1; assay: Induction of apoptosis in human PANC1 cells assessed as early apoptotic cells at 25 uM after 24 hrs by FITC-Annexin V/propidium iodide staining-based flow cytometric analysis (reference value: 0.5 to 3.2%); type: functional
[39] = system: PANC-1; assay: Induction of apoptosis in human PANC1 cells assessed as viable cells at 25 uM after 24 hrs by FITC-Annexin V/propidium iodide staining-based flow cytometric analysis (reference value: 94.7 to 98.7%); type: functional; conditions: PANC-1, 24 h, read-out: Activity
[40] = system: PANC-1; assay: Induction of apoptosis in human PANC1 cells after 24 hrs by FITC-Annexin V/propidium iodide staining-based flow cytometric analysis; type: functional, cell-based
[41] = system: PANC-1; assay: Induction of apoptosis in human PANC1 cells assessed as nuclear chromatin condensation at 10 uM after 24 hrs by Hoechst 33258 staining based fluorescence microscopic analysis; type: functional, cell-based
[42] = system: PANC-1; assay: Induction of apoptosis in human PANC1 cells assessed as nuclear shrinkage at 10 uM after 24 hrs by Hoechst 33258 staining based fluorescence microscopic analysis; type: functional, cell-based
[43] = system: PANC-1; assay: Induction of apoptosis in human PANC1 cells assessed as nuclear fragmentation at 10 uM after 24 hrs by Hoechst 33258 staining based fluorescence microscopic analysis; type: functional, cell-based

SMILES: COC(=O)[C@]1(Cc2ccc(O)c(CC=C(C)C)c2)OC(=O)C(O)=C1c1ccc(O)c(CC=C(C)C)c1
- Activity [1]: 45.36%
- IC50 [2]: 5.3 µM
- IC50 [3]: 17.6 µM
- IC50 [4]: 9 µM
- IC50 [5]: > 20 µM
- IC50 [6]: > 20 µM
- Activity [7]: Active
- Activity [8]: Active
- Activity [9]: Active
- Activity [10]: Active
- Activity [11]: Active
- Activity [12]: Active
- Activity [13]: 49.89%
- Activity [14]: 14.43%
- Activity [15]: 35.11%
- Activity [16]: 10.09%
- Activity [17]: 38.96%
- Activity [18]: 20.44%
- Activity [19]: 38.12%
- Activity [20]: 38.47%
- Activity [21]: 20.46%
- Activity [22]: 35.78%
- Activity [23]: 41.26%
- Activity [24]: 0.2%
- Activity [25]: 0.3%
- Activity [26]: 4.8%
- viability at 5 µM [27]: 94.7%
- Activity [28]: 1.6%
- Activity [29]: 1.2%
- Activity [30]: 9.3%
- viability at 10 µM [31]: 87.9%
- Activity [32]: 1.6%
- Activity [33]: 0.7%
- Activity [34]: 48.5%
- viability at 15 µM [35]: 49.1%
- Activity [36]: 1.3%
- Activity [37]: 11.6%
- Activity [38]: 42.7%
- viability at 25 µM [39]: 44.5%
- Activity [40]: Dose-dependent effect

SMILES: COC(=O)[C@]1(Cc2ccc(O)c(CC=C(C)C)c2)OC(=O)C(O)=C1c1ccccc1
- Activity [1]: 56.57%
- IC50 [2]: 9.4 µM
- IC50 [3]: 18.7 µM
- IC50 [4]: 12.9 µM
- IC50 [5]: > 20 µM
- IC50 [6]: > 20 µM
- Activity [41]: Active
- Activity [42]: Active
- Activity [43]: Active
- Activity [10]: Active
- Activity [11]: Active
- Activity [12]: Active
- Activity [13]: 72.84%
- Activity [14]: 7.77%
- Activity [15]: 10.92%
- Activity [16]: 8.14%
- Activity [17]: 31.28%
- Activity [18]: 52.41%
- Activity [19]: 7.7%
- Activity [20]: 32.92%
- Activity [21]: 43.95%
- Activity [22]: 10.63%
- Activity [23]: 42.63%
- Activity [24]: 1.3%
- Activity [25]: 0.8%
- Activity [26]: 6.8%
- viability at 5 µM [27]: 91.1%
- Activity [28]: 1.2%
- Activity [29]: 1.4%
- Activity [30]: 13.6%
- viability at 10 µM [31]: 83.9%
- Activity [32]: 0.9%
- Activity [33]: 1%
- Activity [34]: 14.9%
- viability at 15 µM [35]: 83.2%
- Activity [36]: 2.3%
- Activity [37]: 3%
- Activity [38]: 21.1%
- viability at 25 µM [39]: 73.6%
- Activity [40]: Dose-dependent effect
